# Entries after “also recorded” stand apart in the source; their conditions may differ. Read-outs that look alike come from different tables or passages of the source.
# Assays:
# [1] = Total Radical-trapping Anti-oxidant Parameter assay (TRAP assay); design: key to TRAP: active as an antioxidant (+); conditions: for TRAP: antioxidant activity; for activity in the TRAP assay: compared with curcumin
# Protocol: This assay is also known as the Total radical-trapping anti-oxidant parameter assay (TRAP assay). For the TRAP assay (Re et al., Free Rad. Biol. […] The turquoise colored reaction was allowed to stabilize for 5 min and the absorbance monitored on a Perkin Elmer UV/Vis Lambda 2S. […] The following FIGS. 2A-2C) show the analogs active in the TRAP assay.
# [2] = Ferric Reducing/Anti-oxidant Power assay (FRAP assay); design: key to FRAP: active as an antioxidant (+); conditions: for FRAP: antioxidant activity; for activity in the FRAP assay: compared with curcumin
# Protocol: Anti-oxidant activity was also measured in the Ferric reducing/anti-oxidant power assay (FRAP assay) in which the analogs are reacted with a ferric tripyridyltriazine complex. For the FRAP assay (Benzie et al., Meth. Enzymol. 1999, 299, 15-27), the ferric complex was prepared at room temperature by reaction of ferric chloride (16.7 mM) and 2,4,6-tripyridyl-s-triazine (8.33 mM) in acetate buffer (0.25 M) to pH 3.6. The FRAP reagent was used immediately after preparation. […] The reaction was mixed by vortexing, allowed to stabilize for 5 min and the absorbance recorded on a Perkin Elmer UV/Vis Lambda 2S. […] The synthetic analog of α-tocopherol (vitamin E), Trolox, was used as a reference standard (10 μM in ethanol).
# The second assay used, the FRAP assay, determines the analogs abilities to reduce a Fe(III) tripyridyltriazine complex to a Fe(II) tripyridyltriazine complex. The following FIGS. 3A-3C) show analogs active in the FRAP assay.
# [3] = test system: NF-κB; test: NF-κB luciferase reporter cellular assay (293T/NF-κB-luc, TNFα-stimulated); format: cell-based, human; conditions: for IC50: Homo sapiens, HEK-293T; for inhibition of the activation of NF-κB by TNFα (screen): 10 μM, compared with curcumin
# Protocol: The cell line is derived from human 293T embryonic kidney cells expressing the large T antigen containing a chromosomal integration of a luciferase reporter construct regulated by 6 copies of the NF-κB response element (Panomics, Inc.). This stable clonal cell line is obtained by co-transfection of pNF-κB-luc and pTK-hyg containing plasmids followed by the addition of hygromycin (200 μg/ml) to maintain cell selection.
# The cell line was grown in a humidified atmosphere at 37° C. in 5% CO2/95% air and maintained in Dulbecco's Modified Eagle's Medium (DMEM-high glucose containing 4 mM glutamine) containing fetal bovine serum (FBS, 10%), sodium pyruvate (1 mM), penicillin (100 units/ml), streptomycin (100 μg/ml) and hygromycin (100 μg/m) to maintain cell selection (Gibco/Invitrogen).
# The 293T/NF-κB-luc cells were re-plated 24 hr prior to treatment, into 24-well cell culture plates in media without hygromycin, to prevent it from interfering with the assay. The cells were then allowed to grow and attach, to the wells, for 24 hr in a humidified atmosphere at 37° C. in 5% CO2/95% air. […] The cells then were placed again in a humidified atmosphere at 37° C. in 5% CO2/95% air for 7 hr. Plate wells were gently washed with PBS, pH 7.4, and lysed with passive lysis buffer (1×, 100 μl, Promega). The subsequent chemiluminescent lysates were analyzed with the Luciferase Assay System (Promega) utilizing a TD-20/20 luminometer. The relative light units (photons) were determined by the addition of firefly luciferase substrate (75 μl) to cell lysate (10 μl). The light units were then normalized to the amount of protein in the well (mg/ml) with BCA™ Protein Assay Kit (Pierce) and standardized to percent of control (TNFα).
# This assay utilized a commercially available cell line (Panomics 293T-luc cellular assay) developed for screening inhibitors of NF-κB. This cell line is stably transfected with a luciferase reporter controlled by an NF-κB dependent promoter. The cell is stimulated with tumor necrosis factor alpha (TNFα) which activates NF-κB. NF-κB then binds to one of six promoter regions on the cell's DNA leading to the production of a luciferase enzyme. Luciferin is added to the cell lysates and the luciferase enzyme catalyzes a cleavage of luciferin leading to the emission of light.
# This cell line was developed by Panomics for screening potential inhibitors of NF-κB. Cells are stimulated with TNF-α to express luciferase, whose activity is monitored in a chemiluminometer.
# An NF-κB reporter stable cell line from human 293T embryonic kidney cells (293T/NFκB-luc) (Panomics) was grown in a humidified atmosphere at 37° C. in 5% CO2/95% air. The cells were maintained in Dulbecco's Modified Eagle's Medium (DMEM—high glucose containing 4 mM glutamine) supplemented with 10% fetal bovine serum (FBS), 1 mM sodium pyruvate, 100 units/ml penicillin, 100 μg/m streptomycin and 100 μg/ml hygromycin (Gibco/Invitrogen, Carlsbad, Calif.)) to maintain cell selection. One day prior to treatment, the 293T/NFκB-luc cells were plated into 24-well cell culture plates (Costar) at approximately 70% confluency in the above media without hygromycin. The following day cells were fed fresh media 1 hour prior to treatment. […] The cells were placed again in a humidified atmosphere at 37° C. in 5% CO2/95% air for 7 hours. Plate wells were gently washed with phosphate buffered saline, pH 7.4, and lysed with 1× passive lysis buffer (Promega). The subsequent lysates were analyzed with the Luciferase Assay System (Promega) utilizing a TD-20/20 luminometer (Turner Designs). The firefly luciferase relative light units were normalized to protein (mg/ml) with BCATM Protein Assay Kit (Pierce) and standardized to TNF-α control.
# [4] = test system: AP-1; test: AP-1 luciferase reporter cellular assay (293/AP1-luc, PMA-stimulated); format: cell-based, human; conditions: for activity in the AP-1 cellular assay (screen): 15 μM, compared with curcumin; for IC50: Homo sapiens
# Protocol: This cell line is obtained by co-transfection of pAP1-luc and pTK-hyg containing plasmids followed by the addition of hygromycin (200 μg/ml) to maintain cell selection.
# After 24 hr, the cells had reached approximately 60% confluency. […] Plate wells were gently washed with PBS, pH 7.4, and lysed with passive lysis buffer (1×, 100 μl, Promega). The subsequent chemiluminescent lysates were analyzed with the Luciferase Assay System (Promega) utilizing a TD-20/20 luminometer. The relative light units (photons) were determined by the addition of firefly luciferase substrate (75 μl) to cell lysate (10 μl). The light units were then normalized to the amount of protein in the well (mg/ml) with BCA™ Protein Assay Kit (Pierce) and standardized to percent of control (PMA).
# This cell line is stably transfected with a luciferase reporter controlled by an AP-1 dependent promoter. The cell is stimulated with phorbol ester which activates AP-1. AP-1 then binds to one of three promoter regions on the cells DNA leading to the production of a luciferase enzyme. Luciferin is added to the cell lysates and the luciferase enzyme catalyzes a cleavage of luciferin leading to the emission of light.
# [5] = inhibition of TNFα-induced NF-κB activation, Table 10, read-out: NF-κB IC50
# [6] = inhibition of TNF-α-induced NF-κB activation, Panomics 293T/NFκB-luc, second Table 12, read-out: IC50
# [7] = inhibition of TNFα-induced NF-κB activation, 293T/NF-κB-luc cells, Table 5, read-out: IC50
# [8] = inhibition of PMA-induced AP-1 activation, 293/AP1-luc cells, Table 10, read-out: AP-1 IC50
compound,measurement,setting,value
COc1cc(/C=C/C(=O)/C=C(O)/C=C/c2ccc(O)c(OC)c2)ccc1O [3a],TRAP,[1]; Table 10,+
same,FRAP,[2]; Table 10,+
same,IC50,[3]; [5],8.2 µM
O=C(/C=C/c1ccc(O)c(O)c1)/C=C/c1ccc(O)c(O)c1 [20af],activity in the TRAP assay,[1]; 10 μM in ethanol,more active than curcumin
same,activity in the FRAP assay,[2]; 10 μM in ethanol,more active than curcumin
O=C(/C=C/c1cccnc1)/C=C/c1cccnc1 [Compound 3],IC50,[3]; [6],3.4 ± 0.2 µM
COc1cccc(/C=C/C(=O)/C=C/c2cccc(OC)c2OC)c1OC [20d],activity in the AP-1 cellular assay (screen),[4],more active than curcumin
COc1cc(/C=C/C(=O)/C=C/c2ccc(OC(C)=O)c(OC)c2)ccc1OC(C)=O [20ag],FRAP,"[2]; 10 μM in ethanol, Table 5",+
same,FRAP,[2]; Table 10,+
same,inhibition of the activation of NF-κB by TNFα (screen),[3],more active than curcumin
same,IC50,[3]; [7],5.4 µM
same,IC50,[3]; [5],5.4 µM
same,activity in the AP-1 cellular assay (screen),[4],more active than curcumin
same,IC50,[4]; [8],8.3 µM
COc1cc(CCC(=O)C(Cc2ccccc2)=C(O)CCc2ccc(O)c(OC)c2)ccc1O [15a],activity in the TRAP assay,[1]; 10 μM in ethanol,more active than curcumin
O=C(/C=C/c1ccccc1C(F)(F)F)/C=C/c1ccccc1C(F)(F)F [Compound 5],IC50,[3]; [6],5 ± 0.3 µM
O=C(/C=C/c1ccccc1O)/C=C/c1ccccc1O [20q],activity in the TRAP assay,[1]; 10 μM in ethanol,more active than curcumin
same,TRAP,"[1]; 10 μM in ethanol, Table 5",+
same,TRAP,[1]; Table 10,+
same,inhibition of the activation of NF-κB by TNFα (screen),[3],more active than curcumin
same,activity in the AP-1 cellular assay (screen),[4],more active than curcumin
same,IC50,[4]; [8],11.7 µM
COc1ccc(/C=C/C(=O)/C=C(O)/C=C/c2ccc(OC)c(O)c2)cc1O [3h],activity in the TRAP assay,[1]; 10 μM in ethanol,more active than curcumin
COc1cc(/C=C/C(=O)c2ccccc2)ccc1O [48a],activity in the FRAP assay,[2]; 10 μM in ethanol,active
same,activity in the AP-1 cellular assay (screen),[4],most active
COc1ccc(OC)c(/C=C/C(=O)/C=C/c2cc(OC)ccc2OC)c1 [20m],inhibition of the activation of NF-κB by TNFα (screen),[3],more active than curcumin
same,IC50,[3]; [7],6.4 µM
same,IC50,[3]; [5],6.4 µM
same,activity in the AP-1 cellular assay (screen),[4],more active than curcumin
same,IC50,[4]; [8],1.4 µM
COc1cc(CCC(=O)C(C)=C(O)CCc2ccc(O)c(OC)c2)ccc1O [14a],activity in the TRAP assay,[1]; 10 μM in ethanol,more active than curcumin
same,inhibition of the activation of NF-κB by TNFα (screen),[3],more active than curcumin
COc1ccccc1/C=C/C(=O)/C=C/c1ccccc1OC [20c],activity in the AP-1 cellular assay (screen),[4],more active than curcumin
COc1cccc(OC)c1/C=C/C(=O)/C=C/c1c(OC)cccc1OC [20l],activity in the AP-1 cellular assay (screen),[4],more active than curcumin
O=C(/C=C/c1ccccc1C(F)(F)F)/C=C/c1ccccc1C(F)(F)F [20w],inhibition of the activation of NF-κB by TNFα (screen),[3],more active than curcumin
same,activity in the AP-1 cellular assay (screen),[4],more active than curcumin
COc1cc(/C=C2\CCC/C(=C\c3ccc(O)c(OC)c3)C2=O)ccc1O [38a],TRAP,"[1]; 10 μM in ethanol, Table 5",+
same,TRAP,[1]; Table 10,+
same,FRAP,"[2]; 10 μM in ethanol, Table 5",+
same,FRAP,[2]; Table 10,+
same,activity in the AP-1 cellular assay (screen),[4],more active than curcumin
same,IC50,"[4]; AP1, read-out: AP-1 IC50 (μM)",7.3 µM
N#Cc1ccc(C(=O)/C=C/c2ccccc2)cc1 [46al],activity in the AP-1 cellular assay (screen),[4],Active
O=C(C1OC1c1ccccc1)C1OC1c1ccccc1 (stereo not drawn) [42b],inhibition of the activation of NF-κB by TNFα (screen),[3],activity comparable to curcumin
COc1cc(/C=C/C(=O)/C=C/c2ccc(O)c(OC)c2)ccc1O [20a],inhibition of the activation of NF-κB by TNFα (screen),[3],more active than curcumin
COc1cc(/C=C/C(C)=O)ccc1O [35a],activity in the FRAP assay,[2]; 10 μM in ethanol,active
same,inhibition of the activation of NF-κB by TNFα (screen),[3],more active than curcumin
CN1C(c2ccccc2)CC(=O)CC1c1ccccc1 (stereo not drawn) [52b],inhibition of the activation of NF-κB by TNFα (screen),[3],more active than curcumin; also recorded: activity comparable to curcumin
COc1cc(/C=C/C(=O)/C(C)=C(O)/C=C/c2ccc(O)c(OC)c2)ccc1O [Compound 2],IC50,[3]; [6],6.7 ± 1.2 µM
COc1cc(CCC(=O)/C=C(\O)CCc2ccc(O)c(OC)c2)ccc1O [13a],activity in the TRAP assay,[1]; 10 μM in ethanol,more active than curcumin
same,activity in the FRAP assay,[2]; 10 μM in ethanol,potent antioxidant activity
O=C(/C=C/c1cccc(C(F)(F)F)c1)/C=C/c1cccc(C(F)(F)F)c1 [20v],inhibition of the activation of NF-κB by TNFα (screen),[3],more active than curcumin
CC(=O)C=Cc1ccccc1O [35q],activity in the AP-1 cellular assay (screen),[4],Active
O=C(O)c1ccc(C(=O)/C=C/c2ccccc2)cc1 [46ad],activity in the FRAP assay,[2]; 10 μM in ethanol,active
same,activity in the AP-1 cellular assay (screen),[4],Active
COc1cc(/C=C/C(=O)/C=C/c2cc(OC)cc(OC)c2)cc(OC)c1 [20o],inhibition of the activation of NF-κB by TNFα (screen),[3],more active than curcumin
same,activity in the AP-1 cellular assay (screen),[4],more active than curcumin

# From patent US9187397B2 (STC.UNM, priority 2004, dated 2015)
